Assay results: patent US20100216779A1 (GLAXOSMITHKLINE LLC, priority 2007, published 2010)

Columns and labels:
human IGF1R (hIGF1R) = target: T1, human IGF1R (hIGF1R) (Homo sapiens, UniProt P08069); assay: IGF1R TR-FRET assay using peptide as the phosphoacceptor; format: biochemical; conditions: 10 μM ATP, 0.5 nM activated enzyme; for IC50: read-out: IGF-1R pIC50 (converted)
T1 construct: containing amino acid residues 957-1367 of human IGF1R; made in house; host or cells: Sf9 cells, baculovirus
T1 sequence (P08069 957-1367): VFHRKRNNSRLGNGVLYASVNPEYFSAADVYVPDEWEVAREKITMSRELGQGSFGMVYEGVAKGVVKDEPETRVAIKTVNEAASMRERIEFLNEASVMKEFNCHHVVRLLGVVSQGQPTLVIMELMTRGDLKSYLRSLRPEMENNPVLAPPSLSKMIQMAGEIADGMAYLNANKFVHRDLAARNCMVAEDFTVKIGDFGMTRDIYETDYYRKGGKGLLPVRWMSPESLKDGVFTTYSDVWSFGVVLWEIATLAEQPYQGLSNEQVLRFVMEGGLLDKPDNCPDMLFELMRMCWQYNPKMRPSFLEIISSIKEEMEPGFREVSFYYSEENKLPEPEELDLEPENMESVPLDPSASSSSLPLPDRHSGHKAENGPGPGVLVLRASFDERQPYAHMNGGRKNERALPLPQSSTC
Method: A. IR and IGF1 R Time Resolved Fluorescence Resonance Energy Transfer (TR-FRET) Assay Using Peptide as the Phosphoacceptor
Substrate phosphorylation assays are carried out as follows:
The Source of Substrate Peptide
The biotinylated substrate peptide, (sequence-Biotin-aminohexyl-AEEEEY*[…]-NH2) SEQ. ID. 1 is purchased from QCB, Inc. (Hopkinton, Mass.). Purity is determined by HPLC. The calculated molecular mass of the peptide is 2216 dalton. Tyrosine phosphorylation by human IGF1R (hIGF1R) or human IR (hIR) occurs as indicated (Y*) in the peptide sequence described. Solid peptide sample is dissolved to approximately 1 mM in DMSO, aliquoted, and stored at −20° C. until use. True peptide concentration is determined by amino acid analysis.
The Source of Enzyme: • hIGF1R: GST-rTEV-IGF-1R (957-1367) containing amino acid residues 957-1367 of human IGF1R (as annotated by National Center for Biotechnology Information (NCBI) accession number NP_000866) is purified from a baculovirus expression system in Sf9 cells using Glutathione Sepharose 4FF column chromatography followed by Sephadex-200 size exclusion column chromatography. Enzyme purity of approximately 95% is achieved. Samples, in 25 mM Tris-HCl, 250 mM NaCl, 5% glycerol, 1 mM DTT, pH 7.5, are stored at −80° C. until use. • hIR: GST-rTEV-IR(979-1382) containing amino acid residues 979-1382 of human IR (as annotated by NCBI accession number NP_000199) is expressed and purified by the same process as hIGF1R. Enzyme purity of approximately 92% is achieved. Samples, in 25 mM Tris-HCl, 250 mM NaCl, 5% glycerol, 1 mM DTT, pH 7.5, are stored at −80° C. until use.
Activation of hIGF1R and hIR by Autophosphorylation: • hIGF1R: Activation of GST-rTEV-IGF-1R(957-1367) is achieved by a 4 minute incubation of hIGF1R (2.7 μM final) with 2 mM ATP in 50 mM HEPES, 20 mM MgCl2, 0.1 mg/mL BSA, at room temperature. Autophosphorylation is stopped by addition of EDTA (to 100 mM final). Aliquoted samples are flash frozen in liquid nitrogen and stored at −80° C. until use. • hIR: Activation of […] is achieved by a 5 minute incubation of hIR (2.7 μM final) with 2 mM ATP in 100 mM HEPES, 10 mM MgCl2, 0.1 mg/mL BSA, at room temperature. Autophosphorylation is stopped by addition of EDTA (to 100 mM final). Aliquoted samples are flash frozen in liquid nitrogen and stored at −80° C. until use. • Kinase Assay of Purified hIGF1R or hIR:
Assays are performed in 384-well (Greiner, Catalog No. 784076) microtiter plates. Reaction buffer (50 mM HEPES buffer, pH 7.5; 10 mM MgCl2; 3 mM DTT; 1 mM CHAPS; 0.1 mg/mL BSA) for peptide phosphorylation (10 μl volume) contained, in final concentrations, 500 nM biotinylated peptide substrate; 10 μM ATP; and purified, activated hIGF1R or hIR (0.5 nM). Some compounds were initially assayed against IGF1R in buffer without DTT or CHAPS. […] Compounds, titrated in DMSO, are evaluated at eleven concentrations ranging from 50 μM to 0.2 nM. […] No effect on activity relative to controls without DMSO is observed for hIGF1R or IR at these DMSO amounts. Reactions are incubated for 1 hour at room temperature and are stopped by a 5 μl addition of EDTA (to 33 mM). A further addition of 5 μl detection reagents (for final 7 nM Streptavidin-APC (PerkinElmer #CR130-150), 1 nM Europium-labeled anti-phosphotyrosine monoclonal antibody (PerkinElmer #AD0067), added in reaction buffer (without DTT), is required for signal generation. After 30 minutes, signal is read on PerkinElmer Viewlux microplate imager or Wallac Victor fluorometer.
Data were fitted to the curve described by:
y=((Vmax*x)/(K+x)) where • Vmax is the upper asymptote and • K is the IC50.
The results for each tested compound were recorded as pIC50 calculated as follows: […]

human IR (hIR) = target: T2, human IR (hIR) (Homo sapiens, UniProt P06213); assay: IR TR-FRET assay using peptide as the phosphoacceptor; format: biochemical; conditions: 10 μM ATP, 0.5 nM activated enzyme; for IC50: read-out: IR pIC50 (converted)
T2 construct: containing amino acid residues 979-1382 of human IR; GST (N); rTEV protease site (linker between GST and kinase) (N); made in house; host or cells: Sf9 cells, baculovirus (same process as hIGF1R)
T2 sequence (P06213 979-1382): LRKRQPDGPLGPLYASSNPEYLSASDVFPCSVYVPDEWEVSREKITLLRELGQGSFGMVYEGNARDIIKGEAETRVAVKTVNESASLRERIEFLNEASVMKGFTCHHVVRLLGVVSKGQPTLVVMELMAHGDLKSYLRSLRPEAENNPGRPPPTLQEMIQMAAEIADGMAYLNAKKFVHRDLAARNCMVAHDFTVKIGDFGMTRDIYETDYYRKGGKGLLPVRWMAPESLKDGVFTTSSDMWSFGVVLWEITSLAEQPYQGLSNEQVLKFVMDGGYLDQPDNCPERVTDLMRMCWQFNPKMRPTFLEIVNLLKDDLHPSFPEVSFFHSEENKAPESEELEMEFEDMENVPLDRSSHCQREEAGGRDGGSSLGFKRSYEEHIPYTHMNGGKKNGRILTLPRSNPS

COLO205 (colon) = assay: Inhibition of cell proliferation, CellTiter-Glo, COLO205; format: cell-based; conditions: Homo sapiens, COLO 205, 72 h
Outline: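 Exponentially growing COLO205 cells in medium with 10% FBS were plated below 2000 cells/well at 37 °C, 5% CO2. Untreated wells served as controls.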

[1] = target: T3, human IGF-1R (NIH-3T3 cells over expressing human IGF-1R) (Homo sapiens, UniProt P08069); assay: IGF-1R cellular autophosphorylation (DELFIA); format: cell-based; conditions: IGF-1 stimulated
T3 construct: expressed in transfected cells; host or cells: NIH-3T3 (mouse fibroblasts)
T3 sequence (P08069 31-1367): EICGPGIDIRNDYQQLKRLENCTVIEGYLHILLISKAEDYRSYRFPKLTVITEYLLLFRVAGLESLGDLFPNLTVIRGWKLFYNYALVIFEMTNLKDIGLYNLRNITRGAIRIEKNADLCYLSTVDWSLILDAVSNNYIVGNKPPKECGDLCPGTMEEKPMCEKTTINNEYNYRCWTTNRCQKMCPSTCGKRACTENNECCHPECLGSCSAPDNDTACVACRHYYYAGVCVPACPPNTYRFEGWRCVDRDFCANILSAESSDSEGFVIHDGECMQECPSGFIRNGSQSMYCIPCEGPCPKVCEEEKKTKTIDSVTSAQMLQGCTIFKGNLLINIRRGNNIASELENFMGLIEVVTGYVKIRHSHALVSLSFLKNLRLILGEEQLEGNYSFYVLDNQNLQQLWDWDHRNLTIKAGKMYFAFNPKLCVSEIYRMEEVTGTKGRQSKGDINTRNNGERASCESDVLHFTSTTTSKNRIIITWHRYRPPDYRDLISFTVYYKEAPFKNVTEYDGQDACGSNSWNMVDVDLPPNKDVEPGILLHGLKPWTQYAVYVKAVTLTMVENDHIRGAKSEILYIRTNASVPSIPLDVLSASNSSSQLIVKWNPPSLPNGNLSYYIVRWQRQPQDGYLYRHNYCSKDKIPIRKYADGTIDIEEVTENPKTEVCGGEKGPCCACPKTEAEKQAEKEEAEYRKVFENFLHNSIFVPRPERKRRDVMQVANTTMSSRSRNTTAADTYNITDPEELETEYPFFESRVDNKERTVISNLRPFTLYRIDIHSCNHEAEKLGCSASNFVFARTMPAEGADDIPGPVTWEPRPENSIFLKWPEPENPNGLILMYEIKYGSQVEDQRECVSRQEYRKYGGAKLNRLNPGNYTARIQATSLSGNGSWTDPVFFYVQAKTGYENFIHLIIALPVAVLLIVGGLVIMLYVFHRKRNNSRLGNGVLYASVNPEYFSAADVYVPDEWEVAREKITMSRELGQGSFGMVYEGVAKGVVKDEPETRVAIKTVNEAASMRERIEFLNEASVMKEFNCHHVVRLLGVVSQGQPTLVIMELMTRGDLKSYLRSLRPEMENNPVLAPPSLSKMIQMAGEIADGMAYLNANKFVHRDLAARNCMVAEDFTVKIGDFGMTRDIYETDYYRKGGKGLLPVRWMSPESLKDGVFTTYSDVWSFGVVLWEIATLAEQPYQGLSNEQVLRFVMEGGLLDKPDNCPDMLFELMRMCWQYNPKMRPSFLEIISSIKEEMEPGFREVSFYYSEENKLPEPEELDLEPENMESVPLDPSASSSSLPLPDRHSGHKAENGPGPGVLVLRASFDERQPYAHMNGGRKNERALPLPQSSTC
Outline: (§1)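 Receptor-overexpressing NIH-3T3, 10% FBS, 37 °C; cpd 30 uM–1.5 nM × 2 h; stim IGF-1 30 ng/mL (IGF-1R) or insulin 3 ug/mL (IR), 15 min; lysate DELFIA, Eu anti-pTyr; % of stimulated signal.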

[2] = target: T4, IR (NIH-3T3 cells over expressing human IGF-1R or IR) (Homo sapiens, UniProt P06213); assay: IR cellular autophosphorylation (DELFIA); format: cell-based; conditions: NIH-3T3 cells over expressing IR, insulin stimulated
T4 construct: expressed in transfected cells; host or cells: NIH-3T3 (mouse fibroblasts)
T4 sequence (P06213 28-1382): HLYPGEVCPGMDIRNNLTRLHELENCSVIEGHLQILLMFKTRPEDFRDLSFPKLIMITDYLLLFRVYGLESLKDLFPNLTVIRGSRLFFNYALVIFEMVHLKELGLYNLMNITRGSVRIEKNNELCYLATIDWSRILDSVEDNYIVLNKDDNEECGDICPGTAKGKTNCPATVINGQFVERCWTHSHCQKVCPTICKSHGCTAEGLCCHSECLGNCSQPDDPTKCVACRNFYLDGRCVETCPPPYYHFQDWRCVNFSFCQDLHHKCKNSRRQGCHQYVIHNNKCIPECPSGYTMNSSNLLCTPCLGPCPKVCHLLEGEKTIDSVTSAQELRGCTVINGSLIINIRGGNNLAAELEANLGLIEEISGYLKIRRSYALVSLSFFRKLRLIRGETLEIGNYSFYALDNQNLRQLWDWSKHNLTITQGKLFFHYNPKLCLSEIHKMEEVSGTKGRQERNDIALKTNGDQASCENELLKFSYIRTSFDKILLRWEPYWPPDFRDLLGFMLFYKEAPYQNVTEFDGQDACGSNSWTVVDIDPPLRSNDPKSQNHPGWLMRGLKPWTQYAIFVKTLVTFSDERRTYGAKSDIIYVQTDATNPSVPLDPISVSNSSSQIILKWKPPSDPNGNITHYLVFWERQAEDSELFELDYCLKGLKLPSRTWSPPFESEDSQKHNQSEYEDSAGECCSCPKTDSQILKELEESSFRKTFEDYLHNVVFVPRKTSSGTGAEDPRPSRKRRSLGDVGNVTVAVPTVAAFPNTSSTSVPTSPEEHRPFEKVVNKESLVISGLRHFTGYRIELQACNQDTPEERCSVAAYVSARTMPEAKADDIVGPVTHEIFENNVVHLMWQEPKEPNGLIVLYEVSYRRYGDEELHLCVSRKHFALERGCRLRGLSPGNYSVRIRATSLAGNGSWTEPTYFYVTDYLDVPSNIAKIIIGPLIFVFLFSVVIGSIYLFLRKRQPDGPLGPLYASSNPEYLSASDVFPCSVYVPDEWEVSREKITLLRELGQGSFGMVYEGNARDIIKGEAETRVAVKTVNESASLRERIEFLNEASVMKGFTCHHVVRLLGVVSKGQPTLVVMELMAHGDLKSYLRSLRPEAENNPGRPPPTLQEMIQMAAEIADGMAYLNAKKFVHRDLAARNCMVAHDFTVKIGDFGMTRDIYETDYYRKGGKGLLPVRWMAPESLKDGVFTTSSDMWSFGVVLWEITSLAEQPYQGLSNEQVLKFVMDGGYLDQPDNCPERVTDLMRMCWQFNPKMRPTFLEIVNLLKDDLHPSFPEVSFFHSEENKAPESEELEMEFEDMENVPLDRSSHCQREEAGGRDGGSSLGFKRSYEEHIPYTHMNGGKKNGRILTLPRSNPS
Outline: as §1

[3] = test system: NCI-H929 (multiple myeloma); assay: Inhibition of cell proliferation, CellTiter-Glo, NCI-H929; format: cell-based; conditions: Homo sapiens, 72 h
Outline: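 Cells were grown in medium with 10% FBS at 37° C, 5% CO2. Cell number was read as CellTiter-Glo luminescence (cellular ATP), with untreated wells as control.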

IC50 (human IGF1R (hIGF1R))	IC50 (human IR (hIR))	IC50 (COLO205 (colon))	IC50 [1]	IC50 [2]	IC50 [3]	SMILES	IGF-1R pIC50 (human IGF1R (hIGF1R))	IR pIC50 (human IR (hIR))
< 100 nM	< 100 nM	250 to 1000 nM	> 500 nM	> 500 nM		CCOc1cc(CCN2CCN(C)CC2)ccc1Nc1nccc(-c2c(-c3ccc(OC)c(C(=O)Nc4c(F)cccc4F)c3)nc3ccccn23)n1 [Example 146, N-(2,6-difluorophenyl)-5-{3-[2-({2-(ethyloxy)-4-[2-(4-methyl-1-piperazinyl)ethyl]-phenyl}amino)-4-pyrimidinyl]imidazo[1,2-a]pyridin-2-yl}-2-(methyloxy)benzamide]		
< 100 nM	< 100 nM	> 1000 nM	< 100 nM	< 100 nM		CCOc1cc(CCN2CCN(C)CC2)ccc1Nc1nccc(-c2c(-c3cccc(C(=O)Nc4c(F)cccc4F)c3)nc3ccccn23)n1 [Example 147, N-(2,6-difluorophenyl)-3-{3-[2-({2-(ethyloxy)-4-[2-(4-methyl-1-piperazinyl)ethyl]-phenyl}amino)-4-pyrimidinyl}imidazo[1,2-a]pyridin-2-yl]benzamide]		
		< 250 nM	< 100 nM	< 100 nM	< 250 nM	CCOc1ccc(-c2nc3ccccn3c2-c2ccnc(Nc3cc(CC)c(N4CCC(N5CCN(S(C)(=O)=O)CC5)CC4)cc3OC)n2)cc1C(=O)Nc1c(F)cccc1F [Example 206, N-(2,6-difluorophenyl)-5-(3-{2-[(5-ethyl-2-(methyloxy)-4-{4-[4-(methylsulfonyl)-1-piperazinyl]-1-piperidinyl}phenyl)amino]-4-pyrimidinyl}imidazo[1,2-a]pyridin-2-yl)-2-(ethyloxy)benzamide]	++ (at least one average pIC50 measurement greater than 6 against the kinase tested but no average measurement greater than pIC50 of 7)	++ (at least one average pIC50 measurement greater than 6 against the kinase tested but no average measurement greater than pIC50 of 7)
		< 250 nM	< 100 nM	< 100 nM	< 250 nM	CCOc1cc(N2CCC(CCS(C)(=O)=O)CC2)c(CC)cc1Nc1nccc(-c2c(-c3ccc(OCC)c(C(=O)Nc4c(F)cccc4F)c3)nc3ccccn23)n1 [Example 208, N-(2,6-difluorophenyl)-5-(3-{2-[(5-ethyl-2-(ethyloxy)-4-{4-[2-(methylsulfonyl)ethyl]-1-piperidinyl}phenyl)amino]-4-pyrimidinyl}imidazo[1,2-a]pyridin-2-yl)-2-(ethyloxy)benzamide]	++ (at least one average pIC50 measurement greater than 6 against the kinase tested but no average measurement greater than pIC50 of 7)	++ (at least one average pIC50 measurement greater than 6 against the kinase tested but no average measurement greater than pIC50 of 7)
< 100 nM	< 100 nM	< 250 nM	< 100 nM	< 100 nM	< 250 nM	CCOc1ccc(-c2nc3ccccn3c2-c2ccnc(Nc3cc(Cl)c(N4CCN(CCS(C)(=O)=O)CC4)cc3OC)n2)cc1C(=O)Nc1c(F)cccc1F [Example 212]		
		< 250 nM	< 100 nM	< 100 nM	< 250 nM	CCOc1cc(N2CCC(CCS(C)(=O)=O)CC2)c(C)cc1Nc1nccc(-c2c(-c3ccc(OC(C)C)c(C(=O)Nc4c(F)cccc4F)c3)nc3ccccn23)n1 [Example 215]	++ (at least one average pIC50 measurement greater than 6 against the kinase tested but no average measurement greater than pIC50 of 7)	++ (at least one average pIC50 measurement greater than 6 against the kinase tested but no average measurement greater than pIC50 of 7)
		< 250 nM	< 100 nM	< 100 nM	< 250 nM	CCOc1cc(N2CCC(CCS(C)(=O)=O)CC2)c(C)cc1Nc1nccc(-c2c(-c3ccc(OCC)c(C(=O)Nc4c(F)cccc4F)c3)nc3ccccn23)n1 [Example 217, N-(2,6-difluorophenyl)-2-(ethyloxy)-5-(3-{2-[(2-(ethyloxy)-5-methyl-4-{4-[2-(methylsulfonyl)ethyl]-1-piperidinyl}phenyl)amino]-4-pyrimidinyl}imidazo[1,2-a]pyridin-2-yl)benzamide]	++ (at least one average pIC50 measurement greater than 6 against the kinase tested but no average measurement greater than pIC50 of 7)	
< 100 nM	< 100 nM	< 250 nM	< 100 nM	< 100 nM	< 250 nM	COc1cc(N2CCN(S(C)(=O)=O)CC2)c(C)cc1Nc1nccc(-c2c(-c3ccc(OC)c(C(=O)Nc4c(F)cccc4F)c3)nc3ccccn23)n1 [Example 225, N-(2,6-difluorophenyl)-5-{3-[2-({5-methyl-2-(methyloxy)-4-[4-(methylsulfonyl)-1-piperazinyl]phenyl}amino)-4-pyrimidinyl]imidazo[1,2-a]pyridin-2-yl}-2-(methyloxy)benzamide]		
